Test results from ChEMBL document CHEMBL1201862, “PubChem BioAssay data set” (2004).
Active and inactive are the calls of the source.

Legend:
HeLa = assay: HeLa cell cytotoxicity, dose response, cytotoxicity control, 24 h, cherry-picked samples (AID 504726); assay type: functional, cell-based, Homo sapiens;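 further: potency for cytotoxicity as loss of luminescence signal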
[1] = biological target: T1, Rac GTPase-activating protein 1 (Homo sapiens, UniProt Q9H0H5); assay: MgcRacGAP GTPase-activating activity inhibitors, confirmation, biochemical, ADP Hunter fluorescence, primary and confirmatory (AID 624330); assay type: functional
T1 sequence (Q9H0H5 whole entry): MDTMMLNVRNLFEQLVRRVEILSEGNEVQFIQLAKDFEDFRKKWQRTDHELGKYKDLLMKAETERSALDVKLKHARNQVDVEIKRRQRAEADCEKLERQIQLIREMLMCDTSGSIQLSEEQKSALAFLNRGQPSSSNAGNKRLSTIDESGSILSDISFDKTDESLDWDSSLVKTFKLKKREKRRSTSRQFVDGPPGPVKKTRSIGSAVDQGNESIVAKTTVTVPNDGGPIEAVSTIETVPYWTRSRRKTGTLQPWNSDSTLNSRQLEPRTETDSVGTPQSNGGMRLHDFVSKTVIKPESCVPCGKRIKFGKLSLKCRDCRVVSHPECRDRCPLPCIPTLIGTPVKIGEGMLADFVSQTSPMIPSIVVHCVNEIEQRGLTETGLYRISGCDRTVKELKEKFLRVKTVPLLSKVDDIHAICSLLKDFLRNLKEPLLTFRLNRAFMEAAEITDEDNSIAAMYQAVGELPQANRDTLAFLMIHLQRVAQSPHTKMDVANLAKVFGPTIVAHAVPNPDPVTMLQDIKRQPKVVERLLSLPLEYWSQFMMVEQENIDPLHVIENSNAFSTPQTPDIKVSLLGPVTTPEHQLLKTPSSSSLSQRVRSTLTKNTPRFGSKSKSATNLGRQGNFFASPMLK

Insulin-degrading enzyme [2] = biological target: T2, Insulin-degrading enzyme (Homo sapiens, UniProt P14735); assay: activators of recombinant IDE enzyme, dose response, counter-screen for IDE activator project, biochemical, fluorescence polarization (AID 588681)
T2 sequence (P14735 whole entry): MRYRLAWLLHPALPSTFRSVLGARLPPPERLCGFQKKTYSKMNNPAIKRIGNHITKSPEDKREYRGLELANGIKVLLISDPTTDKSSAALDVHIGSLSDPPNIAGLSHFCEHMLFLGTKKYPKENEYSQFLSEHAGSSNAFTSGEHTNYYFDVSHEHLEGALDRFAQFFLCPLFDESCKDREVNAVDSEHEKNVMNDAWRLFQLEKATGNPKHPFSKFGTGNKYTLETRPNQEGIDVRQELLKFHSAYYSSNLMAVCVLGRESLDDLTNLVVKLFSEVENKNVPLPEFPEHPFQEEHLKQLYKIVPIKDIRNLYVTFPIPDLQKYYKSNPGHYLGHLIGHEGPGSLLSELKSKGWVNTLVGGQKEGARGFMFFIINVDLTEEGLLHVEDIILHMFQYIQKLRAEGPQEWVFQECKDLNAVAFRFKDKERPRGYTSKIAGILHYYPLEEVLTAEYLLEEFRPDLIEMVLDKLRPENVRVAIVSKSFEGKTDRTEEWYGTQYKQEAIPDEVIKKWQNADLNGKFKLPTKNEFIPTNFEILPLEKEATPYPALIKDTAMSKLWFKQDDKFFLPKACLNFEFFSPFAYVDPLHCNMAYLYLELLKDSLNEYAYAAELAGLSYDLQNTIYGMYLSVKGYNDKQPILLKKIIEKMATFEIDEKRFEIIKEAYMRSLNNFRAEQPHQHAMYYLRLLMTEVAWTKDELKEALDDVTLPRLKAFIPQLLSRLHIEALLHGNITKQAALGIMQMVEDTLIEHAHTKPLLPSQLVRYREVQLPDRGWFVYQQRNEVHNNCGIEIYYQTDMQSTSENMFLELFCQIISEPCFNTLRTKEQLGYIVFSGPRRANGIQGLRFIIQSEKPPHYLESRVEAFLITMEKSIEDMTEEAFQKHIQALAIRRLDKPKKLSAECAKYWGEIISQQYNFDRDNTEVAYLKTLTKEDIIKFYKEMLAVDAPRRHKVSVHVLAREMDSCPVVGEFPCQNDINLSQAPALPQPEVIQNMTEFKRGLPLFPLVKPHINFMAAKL

ORF 73 = ORF 73 (Human herpesvirus 8, UniProt O40947); assay: inhibitors of C-LANA binding to LBS DNA, dose response, biochemical, fluorescence polarization, cherry-picked samples (AID 504725); design: species or system Human gammaherpesvirus 8;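 further: fluorescence polarization of a labeled DNA duplex reporting LANA DNA binding; potency is for inhibitors that block LANA binding to the DNA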
[3] = biological target: T3, Tyrosyl-DNA phosphodiesterase 2 (Homo sapiens, UniProt O95551); assay: human TDP2 enzyme inhibitors, dose response, biochemical, epi absorbance, IC50 (AID 743297)
T3 sequence (O95551 whole entry): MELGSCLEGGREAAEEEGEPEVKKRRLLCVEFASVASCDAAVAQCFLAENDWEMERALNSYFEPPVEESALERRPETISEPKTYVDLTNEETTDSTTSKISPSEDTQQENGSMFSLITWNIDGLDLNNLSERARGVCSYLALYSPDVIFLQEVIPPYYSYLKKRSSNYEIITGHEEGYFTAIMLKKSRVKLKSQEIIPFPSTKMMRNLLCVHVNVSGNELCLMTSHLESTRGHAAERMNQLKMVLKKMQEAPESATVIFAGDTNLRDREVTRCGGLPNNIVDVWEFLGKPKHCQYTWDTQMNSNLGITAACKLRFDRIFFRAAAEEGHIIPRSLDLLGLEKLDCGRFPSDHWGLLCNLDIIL

HEK293 = assay: HEK cell cytotoxicity by LDH release, dose response, cytotoxicity control for IDE activator project, fluorescence, HEK cells (AID 588440); assay type: functional, cell-based; conditions: Homo sapiens;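 further: cytotoxicity by LDH release measuring loss of membrane integrity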
Insulin-degrading enzyme [4] = biological target: T2, Insulin-degrading enzyme; assay: activators of endogenous IDE in HEK cells, dose response, cell-based, fluorescence polarization (AID 588439); assay type: functional
[5] = biological target: T4, Botulinum neurotoxin type A (Clostridium botulinum (strain Hall / ATCC 3502 / NCTC 13319 / Type A), UniProt P0DPI1); assay: High-throughput multiplex microsphere dose response for inhibitors of toxin protease, specifically Botulinum neurotoxin light chain A protease, compounds from Powder Set 01.; assay type: functional, Clostridium botulinum A str. ATCC 3502; conditions: read-out: EC50_MICROM
[6] = biological target: T4, Botulinum neurotoxin type A; assay: High-throughput multiplex microsphere dose response for inhibitors of toxin protease, specifically Botulinum neurotoxin light chain A protease, compounds from Cherry Pick 01.; assay type: functional; conditions: read-out: EC50_MICROM
[7] = biological target: T4, Botulinum neurotoxin type A; assay: Confirmatory FRET assay using full length substrates for Botulinum neurotoxin light chain A protease, with Powder Set01.; assay type: functional
Lethal factor = Lethal factor (Bacillus anthracis, UniProt P15917); assay: High-throughput multiplex microsphere dose response for inhibitors of toxin protease, specifically Lethal Factor protease, compounds from Powder Set 01.; assay type: functional, Bacillus anthracis str. A2012; conditions: read-out: EC50_MICROM
[8] = biological target: Mitogen-activated protein kinase kinase kinase kinase 4 (Homo sapiens, UniProt O95819); assay type: functional
[9] = biological target: Serine/threonine-protein kinase pim-3 (Homo sapiens, UniProt Q86V86); assay type: functional;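 further: value obtained as one member of a broad kinase panel profiling effort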
Cytochrome P450 3A4 = Cytochrome P450 3A4 (Homo sapiens, UniProt P08684); conditions: Potency;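 further: confirmatory qHTS run detecting inhibitors and substrates of CYP3A4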
[10] = biological target: MAP kinase-activated protein kinase 2 (Homo sapiens, UniProt P49137); assay type: functional;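 further: measured as one member of a kinome-wide kinase panel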
Misshapen-like kinase 1 = Misshapen-like kinase 1 (Homo sapiens, UniProt Q8N4C8); assay type: functional;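 further: kinome panel screen with MINK as the panel member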

T4 sequence (P0DPI1 2-448 limits assumed): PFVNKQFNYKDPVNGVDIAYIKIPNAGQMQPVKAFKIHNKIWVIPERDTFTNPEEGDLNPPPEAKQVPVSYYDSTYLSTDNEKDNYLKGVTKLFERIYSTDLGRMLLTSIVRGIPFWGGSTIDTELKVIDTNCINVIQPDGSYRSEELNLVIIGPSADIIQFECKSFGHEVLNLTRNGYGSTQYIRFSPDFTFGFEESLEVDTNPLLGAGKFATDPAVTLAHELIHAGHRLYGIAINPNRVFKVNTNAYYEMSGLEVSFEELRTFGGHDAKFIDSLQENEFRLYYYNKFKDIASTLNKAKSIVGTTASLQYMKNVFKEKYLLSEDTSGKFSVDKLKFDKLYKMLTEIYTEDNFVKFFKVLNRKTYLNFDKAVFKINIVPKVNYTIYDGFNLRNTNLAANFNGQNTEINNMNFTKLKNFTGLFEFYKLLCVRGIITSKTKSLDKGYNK
Chain of Lethal factor (P15917 whole entry): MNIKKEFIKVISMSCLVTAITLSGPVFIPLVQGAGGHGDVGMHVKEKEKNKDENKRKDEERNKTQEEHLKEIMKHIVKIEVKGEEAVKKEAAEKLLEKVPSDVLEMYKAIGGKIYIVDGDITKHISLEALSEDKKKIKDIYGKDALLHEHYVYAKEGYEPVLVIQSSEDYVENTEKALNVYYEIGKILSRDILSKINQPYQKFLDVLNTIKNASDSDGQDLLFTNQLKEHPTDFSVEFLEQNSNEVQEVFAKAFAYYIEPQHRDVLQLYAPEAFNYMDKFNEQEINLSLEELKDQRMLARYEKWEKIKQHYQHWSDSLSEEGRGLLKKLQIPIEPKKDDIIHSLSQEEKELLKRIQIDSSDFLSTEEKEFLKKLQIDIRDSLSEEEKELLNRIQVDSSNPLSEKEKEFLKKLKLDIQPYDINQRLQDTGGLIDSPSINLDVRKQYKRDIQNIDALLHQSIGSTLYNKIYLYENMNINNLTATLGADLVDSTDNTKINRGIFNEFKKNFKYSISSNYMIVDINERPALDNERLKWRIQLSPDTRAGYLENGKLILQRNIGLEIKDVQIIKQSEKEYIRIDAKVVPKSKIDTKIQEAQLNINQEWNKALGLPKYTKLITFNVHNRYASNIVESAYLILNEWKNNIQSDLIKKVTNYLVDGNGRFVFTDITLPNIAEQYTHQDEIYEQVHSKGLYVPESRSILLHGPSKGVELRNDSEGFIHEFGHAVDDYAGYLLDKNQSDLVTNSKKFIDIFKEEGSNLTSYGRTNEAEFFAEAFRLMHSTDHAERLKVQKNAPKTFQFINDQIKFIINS
Chain of Cytochrome P450 3A4 (P08684 whole entry): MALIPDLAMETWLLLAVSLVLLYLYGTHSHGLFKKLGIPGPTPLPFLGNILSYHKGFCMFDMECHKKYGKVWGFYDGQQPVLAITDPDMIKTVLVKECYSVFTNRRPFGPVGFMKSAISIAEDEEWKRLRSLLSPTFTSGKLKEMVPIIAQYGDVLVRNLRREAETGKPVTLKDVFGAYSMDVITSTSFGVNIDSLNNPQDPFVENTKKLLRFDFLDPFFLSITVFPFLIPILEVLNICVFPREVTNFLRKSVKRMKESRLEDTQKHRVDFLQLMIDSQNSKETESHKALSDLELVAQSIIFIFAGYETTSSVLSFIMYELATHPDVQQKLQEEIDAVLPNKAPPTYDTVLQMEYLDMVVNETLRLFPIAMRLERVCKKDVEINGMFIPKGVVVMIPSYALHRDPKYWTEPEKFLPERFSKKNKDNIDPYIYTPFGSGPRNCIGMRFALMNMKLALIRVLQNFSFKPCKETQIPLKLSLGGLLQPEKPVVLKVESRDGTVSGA
Chain of MAP kinase-activated protein kinase 2 (P49137 whole entry): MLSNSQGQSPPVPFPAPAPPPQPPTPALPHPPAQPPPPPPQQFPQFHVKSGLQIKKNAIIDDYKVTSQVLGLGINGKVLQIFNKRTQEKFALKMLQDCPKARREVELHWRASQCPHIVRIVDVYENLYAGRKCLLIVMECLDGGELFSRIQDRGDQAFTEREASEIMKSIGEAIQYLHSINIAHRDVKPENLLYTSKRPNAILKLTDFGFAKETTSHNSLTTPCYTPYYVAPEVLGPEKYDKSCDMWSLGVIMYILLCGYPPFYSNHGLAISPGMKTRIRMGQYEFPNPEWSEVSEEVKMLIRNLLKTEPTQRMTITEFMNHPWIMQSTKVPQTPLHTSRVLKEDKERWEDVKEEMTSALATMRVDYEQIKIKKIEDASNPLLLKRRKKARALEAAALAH
Chain of ORF 73 (O40947 whole entry): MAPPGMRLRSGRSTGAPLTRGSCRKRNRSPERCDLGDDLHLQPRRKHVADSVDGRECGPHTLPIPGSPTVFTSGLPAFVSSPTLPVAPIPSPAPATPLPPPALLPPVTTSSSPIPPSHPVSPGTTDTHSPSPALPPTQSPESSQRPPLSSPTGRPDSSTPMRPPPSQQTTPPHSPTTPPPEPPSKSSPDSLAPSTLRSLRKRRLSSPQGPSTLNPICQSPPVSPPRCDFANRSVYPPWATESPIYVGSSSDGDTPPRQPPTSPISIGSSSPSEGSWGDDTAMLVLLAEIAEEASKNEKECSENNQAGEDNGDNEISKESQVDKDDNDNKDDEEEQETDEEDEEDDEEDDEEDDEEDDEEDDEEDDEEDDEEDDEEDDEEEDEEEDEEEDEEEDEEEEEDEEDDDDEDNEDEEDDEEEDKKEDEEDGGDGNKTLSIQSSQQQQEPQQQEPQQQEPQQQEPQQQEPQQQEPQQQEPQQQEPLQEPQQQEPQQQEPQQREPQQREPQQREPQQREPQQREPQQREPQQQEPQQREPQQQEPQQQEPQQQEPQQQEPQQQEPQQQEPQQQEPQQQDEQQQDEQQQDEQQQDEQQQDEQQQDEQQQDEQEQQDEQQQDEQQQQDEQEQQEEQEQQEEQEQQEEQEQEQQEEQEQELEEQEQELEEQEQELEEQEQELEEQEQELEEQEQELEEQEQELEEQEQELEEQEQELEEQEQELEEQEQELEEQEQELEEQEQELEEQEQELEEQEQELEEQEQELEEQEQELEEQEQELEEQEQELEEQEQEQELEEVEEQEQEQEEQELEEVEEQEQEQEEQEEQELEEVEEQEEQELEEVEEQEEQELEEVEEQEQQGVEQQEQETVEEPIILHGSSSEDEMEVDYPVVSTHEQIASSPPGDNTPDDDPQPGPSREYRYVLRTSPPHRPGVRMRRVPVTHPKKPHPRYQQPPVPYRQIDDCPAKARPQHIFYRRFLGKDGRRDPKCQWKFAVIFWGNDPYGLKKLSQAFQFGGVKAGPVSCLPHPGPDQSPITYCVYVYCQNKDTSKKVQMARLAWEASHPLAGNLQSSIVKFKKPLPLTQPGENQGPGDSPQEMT
Chain of Mitogen-activated protein kinase kinase kinase kinase 4 (O95819 whole entry): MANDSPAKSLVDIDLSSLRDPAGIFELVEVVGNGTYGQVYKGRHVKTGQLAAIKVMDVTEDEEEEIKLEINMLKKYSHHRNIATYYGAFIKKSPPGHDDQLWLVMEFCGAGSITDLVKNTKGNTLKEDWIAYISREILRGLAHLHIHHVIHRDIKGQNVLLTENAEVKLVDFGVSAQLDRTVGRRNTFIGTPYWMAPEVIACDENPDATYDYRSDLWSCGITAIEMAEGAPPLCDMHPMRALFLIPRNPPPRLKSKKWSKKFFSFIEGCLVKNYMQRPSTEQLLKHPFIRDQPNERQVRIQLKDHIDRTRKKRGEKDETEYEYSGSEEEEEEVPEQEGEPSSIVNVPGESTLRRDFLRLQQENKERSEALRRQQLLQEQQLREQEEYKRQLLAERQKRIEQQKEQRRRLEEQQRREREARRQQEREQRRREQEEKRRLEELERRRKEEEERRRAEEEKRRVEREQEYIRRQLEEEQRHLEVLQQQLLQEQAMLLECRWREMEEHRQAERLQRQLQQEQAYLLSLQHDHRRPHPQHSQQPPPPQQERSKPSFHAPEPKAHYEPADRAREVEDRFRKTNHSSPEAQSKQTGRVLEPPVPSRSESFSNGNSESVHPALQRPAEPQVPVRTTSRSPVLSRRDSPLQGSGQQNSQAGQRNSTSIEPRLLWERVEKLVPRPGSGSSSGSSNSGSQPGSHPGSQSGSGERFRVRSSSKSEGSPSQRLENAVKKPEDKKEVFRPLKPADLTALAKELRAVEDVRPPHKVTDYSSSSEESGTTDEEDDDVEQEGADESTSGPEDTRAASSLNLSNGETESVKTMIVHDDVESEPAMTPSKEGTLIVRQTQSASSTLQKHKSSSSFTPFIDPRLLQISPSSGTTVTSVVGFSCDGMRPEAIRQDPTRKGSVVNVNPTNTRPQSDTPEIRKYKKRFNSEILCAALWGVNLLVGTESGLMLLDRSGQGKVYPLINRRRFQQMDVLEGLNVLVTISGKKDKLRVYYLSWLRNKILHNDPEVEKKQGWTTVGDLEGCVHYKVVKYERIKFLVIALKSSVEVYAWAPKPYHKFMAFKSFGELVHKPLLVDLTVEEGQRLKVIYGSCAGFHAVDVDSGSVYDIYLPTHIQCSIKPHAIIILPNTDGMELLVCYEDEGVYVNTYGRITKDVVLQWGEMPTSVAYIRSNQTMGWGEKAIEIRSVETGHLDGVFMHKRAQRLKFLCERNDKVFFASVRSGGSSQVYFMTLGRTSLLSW

C[n+]1c2cc(N)ccc2cc2ccc(N)cc21
AC50 (HeLa): 7.94 µM (active) | IC50 [1]: 97.5 µM (active) | EC50 (Insulin-degrading enzyme [2]): > 54.7 µM (inactive) | AC50 (ORF 73): 0.285 µM (active) | IC50 [3]: > 128 µM (inactive) | IC50 (HEK293): > 89.2 µM (inactive) | EC50 (Insulin-degrading enzyme [4]): > 54.7 µM (inactive)

O=C(Nc1ccc2nc(-c3cccs3)c(-c3cccs3)nc2c1)NC1CC1
EC50 [5]: 1.5 µM (active) | EC50 [6]: 12.3 µM (active) | EC50 [7]: 0.6 µM (active) | EC50 (Lethal factor): 1.6 µM (active)

Oc1ccc(Nc2nc(-c3ccc(Cl)cc3)cs2)cc1
Ki [8]: 1 µM (active) | Ki [9]: 3.16 µM (active) | AC50 (Cytochrome P450 3A4): 25.1 µM (inconclusive) | Ki [10]: 7.94 µM (active) | Ki (Misshapen-like kinase 1): 2.51 µM (active)
